Literature values, collected in US20030228369A1, “Process for conversion of high viscosity fluids and compositions thereof” (priority 2002, published 2003).

Conditions: pH about 1.2

**Q.** With CC(C)=CCC1=C(O)[C@](O)(CC=C(C)C)C(=O)C(C(=O)CC(C)C)=C1O [humulon] as the molecule, how does the “solubility at pH of the stomach / gastric fluid” value read?
**A.** not soluble
